Values after ≈ are worked out from the molar mass of the structure shown.
How the values were obtained:
[1] = test system: A549; experiment: cells; conditions: Homo sapiens
Description: Antiproliferative activity against human A549 cells assessed as cell growth inhibition incubated for72 hrs by MTT assay

[2] = test system: T-24; experiment: cells; conditions: Homo sapiens
Description: Antiproliferative activity against human T-24 cells assessed as cell growth inhibition incubated for72 hrs by MTT assay

[3] = test system: Huh-7; experiment: cells; conditions: Homo sapiens
Description: Antiproliferative activity against human Huh-7 cells assessed as cell growth inhibition incubated for72 hrs by MTT assay

[4] = test system: A549/TR; experiment: Antiproliferative activity against human A549/Taxol cells assessed as cell growth inhibition incubated for72 hrs by MTT assay; format: functional, cell-based
[5] = Resistance index, ratio of IC50 for human A549/Taxol cells to IC50 for human A549 cells; format: functional
[6] = Lipophilicity, logP of compound in n-octanol-water at 5 mg/ml incubated for 8 hrs by HPLC analysis; format: physicochemical
[7] = Aqueous solubility of compound in pH 7.4 at 10 mg/ml by HPLC analysis; format: physicochemical; conditions: buffer, read-out: solubility

Structure (SMILES) | IC50 [1] [µM] | IC50 [2] [µM] | IC50 [3] [µM] | IC50 [4] [µM] | logP at 8 h [6] | solubility [7] [µg/mL] | Ratio IC50 [5]
COc1cc(-c2ccc3cnn(-c4ccc(C)cc4)c3c2)cc(OC)c1OC | > 25 | > 25 | > 25 |  |  |  | 
COc1cc(-c2ccc3c(C)nn(-c4ccc(OC(F)(F)F)cc4)c3c2)cc(OC)c1OC | 19.5 | > 25 | > 25 |  |  |  | 
COc1cc(-c2ccc3c(C)nn(-c4ccc5c(c4)CCO5)c3c2)cc(OC)c1OC | 5.3 | 4.82 | 1.45 |  |  |  | 
CC(=O)O[C@H]1C(=O)[C@@]2(C)[C@H]([C@H](OC(=O)c3ccccc3)[C@]3(O)C[C@H](OC(=O)[C@H](O)[C@@H](NC(=O)c4ccccc4)c4ccccc4)C(C)=C1C3(C)C)[C@]1(OC(C)=O)CO[C@@H]1C[C@@H]2O [PACLITAXEL] |  |  |  | 5.65 |  |  | 403.8
COc1cc(-n2ncc3ccc(-c4ccncc4)cc32)cc(OC)c1OC | 15.2 | 16.4 | 9.22 |  |  |  | 
COc1ccc(-n2nc(C)c3ccc(-c4cc(OC)c(OC)c(OC)c4)cc32)cn1 | > 25 | > 25 | > 25 |  |  |  | 
COc1ccc(-n2ncc3ccc(-c4cc(OC)c(OC)c(OC)c4)cc32)cc1 | > 25 | > 25 | > 25 |  |  |  | 

The next lines start with results.

IC50 [1] [µM] | IC50 [2] [µM] | IC50 [3] [µM] | IC50 [4] [µM] | logP at 8 h [6] | solubility [7] [µg/mL] | Structure (SMILES) | Ratio IC50 [5]
0.12 | 0.17 | 0.14 |  |  |  | COc1cc(-n2ncc3ccc(-c4ccc5[nH]ccc5c4)cc32)cc(OC)c1OC | 
0.052 | 0.08 | 0.042 |  |  |  | COc1cc(-n2ncc3ccc(-c4ccccc4)cc32)cc(OC)c1OC | 
0.15 | 0.19 | 0.33 |  |  |  | COc1ccc(-c2ccc3cnn(-c4cc(OC)c(OC)c(OC)c4)c3c2)cn1 | 
0.025 | 0.03 | 0.028 | 0.025 | 3.1 | 5.09 (≈ 12.7 µM) | COc1cc(-n2ncc3ccc(-c4cccc5[nH]ccc45)cc32)cc(OC)c1OC | 1
0.49 | 0.28 | 0.11 |  |  |  | COc1ccc(-c2ccc3c(C)nn(-c4cc(OC)c(OC)c(OC)c4)c3c2)cc1 | 
0.19 | 0.14 | 0.12 |  |  |  | COc1cc(-n2nc(C)c3ccc(-c4ccc(C)cc4)cc32)cc(OC)c1OC | 
0.063 | 0.12 | 0.073 |  |  |  | COc1cc(-n2ncc3ccc(-c4ccc5c(ccn5C)c4)cc32)cc(OC)c1OC | 
